Results reported in US10399966B2, “Compounds for treatment of trypanosomes and neurological pathogens and uses thereof” (The University of North Carolina at Chapel Hill, priority 2016, dated 2019).
Where two headings read alike, the source gives them in different places.

What was measured:
[1] = test system: human lymphocytes CRL-8155; assay: Cytotoxicity against CRL-8155 cells; settings: human lymphoblasts; for EC50: read-out: CRL-8155 EC50, concentration required to inhibit growth by 50%; for EC90: read-out: CRL-8155 EC90, concentration required to inhibit growth by 90%
Method: The selectivity of each compound for the parasite over each of the two cell lines was calculated.

[2] = test system: human hepatocytes HepG2; assay: Cytotoxicity against HepG2 cells; settings: for EC50: Homo sapiens, HepG2, read-out: HepG2 EC50; for EC90: read-out: HepG2 EC90, concentration required to inhibit growth by 90%, human hepatocytes
[3] = test system: Trypanosoma cruzi; assay: Efficacy against T. cruzi in vitro; assay type: cell-based; settings: Trypanosoma cruzi, Table 10; for EC50: read-out: T.cruzi EC50; for EC90: read-out: T.cruzi EC90
[4] = test system: T. b. brucei; assay: In vitro antitrypanosomal activity against T. brucei (growth inhibition); assay type: cell-based, Trypanosoma brucei; settings: Trypanosoma brucei; for EC90: read-out: T. brucei EC90
Method: Primary hits from the screen were further characterized using a dose-response assay format to determine the EC50. In parallel, the cytotoxicities of these compounds were determined against a proliferating human hepatoma cell line (Huh7). […] SI—CC50/EC50). The final set of confirmed T. brucei hits consisted of 1035 inhibitors. […] In vitro antitrypanosomal activities against T. b. rhodesiense (STIB9000) and cytotoxicities against L6 rat myoblast cells were measured following established protocols (Orhan et al., Mar. Drugs 8:47 (2010). […] All wells including negative controls contained a final of 0.4% DMSO. After incubation of the plates at 37° C. for 48 h, the parasite density was determined using the CellTiter-Glo reagent (Promega), a firefly luciferase assay system that measures the amount of cellular ATP present in plate wells.

[5] = Metabolic stability in mouse liver microsomes; assay type: in vitro ADME; settings: Table 12; 37° C., NADPH (1 mM), microsomes 0.5 mg/mL, test compounds 1.5 μM
Method: (§1) Metabolic stability was evaluated using liver microsomes derived from mouse and human sources. Microsomal incubations were carried out according to a protocol described previously (Wang et al., Antimicrob. Agents Chemother. 54:2507 (2010)) with modifications. Briefly, substrate stock solutions were prepared in DMSO and DMSO content was kept at 0.5% (v/v) in final incubations. Incubation mixtures ([…]), liver microsomes (0.5 mg/mL) from mouse (pool of 1000, CD-1 male mouse) or human (pool of 50, mixed gender) (XenoTech LLC, Lenexa, Kans.) in a phosphate buffer (100 mM, pH 7.4) containing 3.3 mM MgCl2. After a 5-minute pre-equilibration period at 37° C., reactions (in triplicate) were initiated by adding the NADPH cofactor (1 mM). For NADPH-independent reactions, the cofactor was replaced with water. Aliquots (10 μl) of the reaction mixtures were removed at 0, 15, 30, and 60 minutes and individually mixed with 200 μL of ice-cold acetonitrile containing internal standard. The mixtures were vortex-mixed, and precipitated protein was removed by centrifugation at 2,250×g for 15 min. The supernatant fractions were dried using a 96-well microplate evaporator (Apricot Designs Inc., Covina, Calif.) under N2 at 50° C. and reconstituted with 100 μL 50% methanol containing 0.1% trifluoroacetic acid before UPLC-MS/MS analysis. In vitro half-life (t1/2) was obtained by analyzing the substrate concentration vs. incubation time curve using the one-phase exponential decay model (GraphPad Prism® 5.0, San Diego, Calif.).

[6] = Metabolic stability in human liver microsomes; assay type: in vitro ADME; settings: Table 12; 37° C., NADPH (1 mM), microsomes 0.5 mg/mL, test compounds 1.5 μM
Method: as §1

[7] = Distribution between mouse plasma and brain (brain penetration, ip); assay type: in vivo; settings: for Brain/plasma ratio / [compound]Brain / [compound]Plasma: Table 14, mice, single ip dose 5 mg/kg, one hour post-dose; for [compound]Brain / [compound]Plasma: ± SEM of 3 mice (compound 3: 6 mice); for Kp at 1 h / concentration at 1 h: mouse, intraperitoneal, 5 mg/kg; for Kp at 1 h: brain and plasma, read-out: Average brain/plasma ratio
Method: For distribution of compounds between mouse plasma and brain, mice (in groups of 3) were injected with test compounds (5 mg/kg ip) and sacrificed at the indicated times for collection of plasma and brain. Compound was dissolved in 0.4 mL of dosing solution (7% Tween 80, 3% ethanol, 5% DMSO, 0.9% saline) for ip injections. The brains were weighed and immediately frozen, then later homogenized in acetonitrile using a Dounce homogenizer. Prior to animal studies, recovery of test compound was carried out by adding a known amount to a mouse brain in the test extraction solvent and performing the homogenization. Compound recovery was determined by liquid chromatography/tandem mass spectrometry analysis relative to a standard compound amount. Blood was taken from the same mice in heparinized capillary tubes (Fisherbrand) for determination of compound concentration in plasma. The concentration of compound in the brain was obtained by dividing the moles of compound in the brain by the brain volume (obtained from the brain weight assuming 1 g is 1 mL) and correcting for the brain vasculature volume of 2.5% by weight.
Brain penetration studies (Table 14) were initially performed upon compounds 1, 2, and 3, but were expanded to include other compounds in order to explore the SAR of brain penetration. Groups of three mice were given single 5 mg/kg ip doses of the test compounds and were sacrificed 1 h post-dose.

[8] = Table 11, read-out: T. b. brucei EC50
[9] = Table 9, read-out: T. brucei EC50
[10] = brain, Table 8, groups of 3 mice (compound 3: ± SEM of 6 mice), read-out: Average [compound] brain
[11] = plasma, Table 8, groups of 3 mice (compound 3: ± SEM of 6 mice), read-out: Average [compound] plasma
[12] = Table 8, read-out: T. brucei EC50

SMILES | melting point [°C] | EC50 [3] [nM] | EC90 [3] [nM] | Brain/plasma ratio [7] | [compound]Brain [7] [µM] | [compound]Plasma [7] [µM] | Kp at 1 h ([7]; Table 8, groups of 3 mice) | concentration at 1 h [7, 10] [nM] | concentration at 1 h [7, 11] [nM] | EC50 [1] [µM] | EC90 [1] [µM] | EC50 [2] [µM] | EC90 [2] [µM] | EC50 [4, 8] [nM] | EC50 [4, 9] [nM] | EC90 ([4]; Table 9) [nM] | EC50 [4, 12] [nM] | other results
O=C(Nc1ccc2sc(-c3ccccc3F)nc2c1)N1CCCC1 [Compound 32, 2-(2-Fluorophenyl)-5-(N-pyrrolidylamido)benzothiazole] | 207 to 208 | 1230 | 1990 |  |  |  |  |  |  | > 50 | > 50 | > 50 | > 50 | 983 | 983 | 1240 |  | 
O=C(Nc1ccc2oc(-c3ccccc3)nc2c1)c1ccccc1 [Compound 15, 5-Benzamido-2-phenylbenzoxazole] |  |  |  |  |  |  |  |  |  |  |  |  |  |  |  |  |  | Mouse microsomes t1/2 [5]: 17 min; Human microsomes t1/2 [6]: 60 min; EC50 ([4]; read-out: T. b. brucei EC50): > 10000 nM; EC50 ([4]; read-out: T. brucei EC50): > 10000 nM; EC90 [4]: > 10000 nM
O=C(Nc1ccc2sc(-c3ccc(F)cc3)nc2c1)N1CCCCC1 [Compound 27, 2-(4-Fluorophenyl)-5-(N-piperidylamido)benzothiazole] | 227 to 229 | 1670 | 1950 |  |  |  |  |  |  | > 50 | > 50 | > 50 | > 50 | 427 | 427 | 737 |  | 
O=C(Nc1ccc2sc(-c3ccc(F)c(F)c3)nc2c1)N1CCC(F)(F)C1 [Compound 9, 2-(3,4-Difluorophenyl)-5-(3,3-difluoro-N-pyrrolidylamido)benzothiazole] | 227 to 228 |  |  | 7.92 ± 0.693 | 21.7 ± 1.96 | 2.81 ± 0.452 | 7.92 ± 1.2 | 21700 ± 3400 | 2810 ± 784 | > 50 | > 50 | > 50 | > 50 | 934 | 934 | 1660 | 934 | 
O=C(Nc1ccc2sc(-c3ccc(F)c(F)c3)nc2c1)N1CCC(F)CC1 [Compound 13, 2-(3,4-Difluorophenyl)-5-(4-fluoro-N-piperidylamido)benzothiazole] | 231.5 to 232 | 1800 | 1990 | 1.01 ± 0.081 | 2.52 ± 0.248 | 2.51 ± 0.203 | 1.01 ± 0.14 | 2530 ± 430 | 2510 ± 352 | > 50 | > 50 | > 50 | > 50 | 341 | 341 | 596 | 341 | 

The remaining molecules from weak to strong by EC50 [3], led by results:

melting point [°C] | EC50 [3] [nM] | EC90 [3] [nM] | Brain/plasma ratio [7] | [compound]Brain [7] [µM] | [compound]Plasma [7] [µM] | Kp at 1 h ([7]; Table 8, groups of 3 mice) | concentration at 1 h [7, 10] [nM] | concentration at 1 h [7, 11] [nM] | SMILES | EC50 [1] [µM] | EC90 [1] [µM] | EC50 [2] [µM] | EC90 [2] [µM] | EC50 [4, 8] [nM] | EC50 [4, 9] [nM] | EC90 ([4]; Table 9) [nM] | EC50 [4, 12] [nM] | other results
213 to 215 | 843 | 1120 |  |  |  |  |  |  | O=C(Nc1ccc2sc(-c3ccccc3F)nc2c1)N1CCCCC1 [Compound 33, 2-(2-Fluorophenyl)-5-(N-piperidylamido)benzothiazole] | > 50 | > 50 | > 50 | > 50 | 935 | 935 | 1140 |  | 
211 to 213 | 666 | 802 |  |  |  |  |  |  | O=C(Nc1ccc2sc(-c3ccc(F)cc3)nc2c1)N1CCCC1 [Compound 26, 2-(4-Fluorophenyl)-5-(N-pyrrolidylamido)benzothiazole] | > 50 | > 50 | > 50 | > 50 | 375 | 375 | 895 |  | 
194 to 195 | 578 | 665 | 1.76 ± 0.032 | 2.31 ± 0.746 | 1.3 ± 0.406 |  |  |  | O=C(Nc1ccc2sc(-c3cccc(F)c3F)nc2c1)N1CCCC1 [Compound 5, 2-(2,3-Difluorophenyl)-5-(N-pyrrolidylamido)benzothiazole] | > 50 | > 50 | > 50 | > 50 | 183 | 183 | 394 |  | Kp at 1 h ([7]; Table 7, groups of 3 mice): 1.76 ± 0.055; concentration at 1 h ([7]; brain, Table 7, groups of 3 mice, read-out: Average [compound] brain): 2310 ± 1290 nM; concentration at 1 h ([7]; plasma, Table 7, groups of 3 mice, read-out: Average [compound] plasma): 1300 ± 703 nM; EC50 ([4]; Table 7, read-out: T. brucei EC50): 183 nM
232 to 233 | 429 | 912 | 0.510 ± 0.023 | 1.29 ± 0.156 | 2.52 ± 0.185 | 0.51 ± 0.04 | 1290 ± 270 | 2520 ± 320 | O=C(Nc1ccc2sc(-c3ccc(F)c(F)c3)nc2c1)N1CCCCC1 [Compound 12, 2-(3,4-Difluorophenyl)-5-(N-piperidylamido)benzothiazole] | > 50 | > 50 | > 50 | > 50 | 223 | 223 | 282 | 223 | 
